Measured values published in patent US20080312255A1 (ASTRAZENECA AB, priority 2007, published 2008).
≈ marks a conversion by molar mass, not a printed value.

What was measured:
[1] = molecular target: S. aureus GyrB ATPase (Staphylococcus aureus, UniProt P0A0K8); assay: S. aureus GyrB ATPase inhibition (ammonium molybdate/malachite green phosphate detection); format: biochemical; settings: compound concentration of 1 μM
Outline: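 E. coli GyrA and S. aureus GyrB (250 pM each) with sheared salmon sperm DNA and 250 μM ATP, pH 7.5 Hepes buffer. Released phosphate detected by malachite green/ammonium molybdate at 650 nm; percent inhibition at 1 μM compound unless noted, normalized to 2% DMSO (0%) and EDTA (100%) controls.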

[2] = tested on: Streptococcus pneumoniae; assay: Bacterial susceptibility testing in liquid media (MIC); format: cell-based; settings: 37° C., 24 hrs, lowest concentration reducing growth by 80% or more, read-out: MIC against Streptococcus pneumoniae
Source text: Compounds may be tested for antimicrobial activity by susceptibility testing in liquid media. Compounds may be dissolved in dimethylsulfoxide and tested in 10 doubling dilutions in the susceptibility assays. The organisms used in the assay may be grown overnight on suitable agar media and then suspended in a liquid medium appropriate for the growth of the organism. The suspension can be a 0.5 McFarland and a further 1 in 10 dilution can be made into the same liquid medium to prepare the final organism suspension in 100 μL. Plates can be incubated under appropriate conditions at 37° C. for 24 hrs prior to reading. The Minimum Inhibitory Concentration (MIC) may be determined as the lowest drug concentration able to reduce growth by 80% or more.

Sequence of S. aureus GyrB ATPase (P0AES4 whole entry): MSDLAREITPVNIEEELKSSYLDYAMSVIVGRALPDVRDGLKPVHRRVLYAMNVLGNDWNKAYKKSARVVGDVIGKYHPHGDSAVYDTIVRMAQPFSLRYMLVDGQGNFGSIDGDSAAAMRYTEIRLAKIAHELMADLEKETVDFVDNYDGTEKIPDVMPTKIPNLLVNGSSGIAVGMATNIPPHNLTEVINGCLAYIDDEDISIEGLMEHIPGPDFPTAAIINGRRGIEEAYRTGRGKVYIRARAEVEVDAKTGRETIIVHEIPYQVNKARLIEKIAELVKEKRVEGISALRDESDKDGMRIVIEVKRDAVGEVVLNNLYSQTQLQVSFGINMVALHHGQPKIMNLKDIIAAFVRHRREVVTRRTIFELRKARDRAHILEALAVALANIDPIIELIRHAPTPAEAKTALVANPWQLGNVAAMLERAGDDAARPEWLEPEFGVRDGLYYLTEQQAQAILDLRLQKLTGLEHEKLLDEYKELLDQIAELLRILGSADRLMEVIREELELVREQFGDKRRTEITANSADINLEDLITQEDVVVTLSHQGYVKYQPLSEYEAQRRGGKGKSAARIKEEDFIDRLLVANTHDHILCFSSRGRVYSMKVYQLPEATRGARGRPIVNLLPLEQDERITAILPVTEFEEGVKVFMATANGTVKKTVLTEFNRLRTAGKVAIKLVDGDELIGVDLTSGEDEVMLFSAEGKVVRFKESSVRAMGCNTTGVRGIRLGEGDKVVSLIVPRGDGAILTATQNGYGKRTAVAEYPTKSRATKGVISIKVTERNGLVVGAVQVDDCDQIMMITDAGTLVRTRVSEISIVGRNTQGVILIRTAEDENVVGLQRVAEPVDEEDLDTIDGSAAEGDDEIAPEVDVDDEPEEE
Sequence of S. aureus GyrB ATPase (P0A0K8 whole entry): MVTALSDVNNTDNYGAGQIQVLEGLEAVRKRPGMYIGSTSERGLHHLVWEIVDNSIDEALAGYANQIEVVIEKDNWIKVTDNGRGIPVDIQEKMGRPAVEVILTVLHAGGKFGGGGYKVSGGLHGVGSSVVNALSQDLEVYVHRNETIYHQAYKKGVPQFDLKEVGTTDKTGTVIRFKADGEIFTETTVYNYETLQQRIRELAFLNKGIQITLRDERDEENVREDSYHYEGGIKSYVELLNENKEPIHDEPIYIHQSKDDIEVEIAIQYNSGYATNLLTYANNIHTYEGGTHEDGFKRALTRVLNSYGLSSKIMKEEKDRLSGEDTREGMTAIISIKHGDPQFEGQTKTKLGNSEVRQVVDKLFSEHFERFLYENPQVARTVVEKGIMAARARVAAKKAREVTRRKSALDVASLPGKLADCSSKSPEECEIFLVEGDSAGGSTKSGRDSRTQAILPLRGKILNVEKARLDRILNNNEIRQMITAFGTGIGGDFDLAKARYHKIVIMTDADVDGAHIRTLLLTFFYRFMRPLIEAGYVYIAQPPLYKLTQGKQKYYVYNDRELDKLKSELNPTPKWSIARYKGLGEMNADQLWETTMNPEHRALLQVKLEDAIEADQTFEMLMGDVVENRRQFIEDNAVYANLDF

SMILES	inhibition at 1 µM [1] [%]	MIC [2] [µg/mL]
COCn1ccnc1-c1nc(N2CC[C@@H](NC(=O)c3[nH]c(C)c(Cl)c3Cl)[C@@H](F)C2)sc1C(=O)OC [Example 59]	100	
Cc1[nH]c(C(=O)N[C@@H]2CCN(c3nc(-c4ccncn4)c(C(=O)O)s3)C[C@@H]2F)c(Cl)c1Cl [Example 5, 2-((3S,4R)-4-{[(3,4-Dichloro-5-methyl-1H-pyrrol-2-yl)carbonyl]amino}-3-fluoropiperidin-1-yl)-4-pyrimidin-4-yl-1,3-thiazole-5-carboxylic acid]	99.4	
CCOC(=O)c1sc(N2CC[C@@H](NC(=O)c3[nH]c(C)c(Cl)c3Cl)[C@@H](OC)C2)nc1-c1ccncn1 [Example 81]	100	
CCOC(=O)c1sc(N2CC[C@@H](NC(=O)c3[nH]c(C)c(Cl)c3Cl)[C@@H](F)C2)nc1-c1nc2ccccc2s1 [Example 56]	93.9	
Cc1[nH]c(C(=O)N[C@@H]2CCN(c3nc(-c4ncnn4C)c(C(=O)O)s3)C[C@@H]2OCc2ccccc2)cc1Cl [Example 146, 2-[(3S,4R)-3-(benzyloxy)-4-{[(4-chloro-5-methyl-1H-pyrrol-2-yl)carbonyl]amino}piperidin-1-yl]-4-(1-methyl-1H-1,2,4-triazol-5-yl)-1,3-thiazole-5-carboxylic acid]	116	
Cc1[nH]c(C(=O)N[C@@H]2CCN(c3nc(-c4cnccn4)c(C(=O)O)s3)C[C@@H]2OCc2ccccc2)c(C#N)c1Cl [Example 155, 2-[(3S,4R)-3-(benzyloxy)-4-{[(4-chloro-3-cyano-5-methyl-1H-pyrrol-2-yl)carbonyl]amino}piperidin-1-yl]-4-(pyrazin-2-yl)-1,3-thiazole-5-carboxylic acid]	110	
CCOC(=O)c1sc(N2CC[C@@H](NC(=O)c3[nH]c(C)c(Cl)c3Cl)[C@@H](OC)C2)nc1-c1cnc(C)cn1 [Example 96, ethyl 2-((3S,4R)-4-(3,4-dichloro-5-methyl-1H-pyrrole-2-carboxamido)-3-methoxypiperidin-1-yl)-4-(5-methylpyrazin-2-yl)thiazole-5-carboxylate]	90.2	
COc1cccc(-c2nc(N3CC[C@@H](NC(=O)c4[nH]c(C)c(Cl)c4Cl)[C@@H](OC)C3)sc2C(=O)O)n1 [Example 111, 2-((3S,4R)-4-(3,4-dichloro-5-methyl-1H-pyrrole-2-carboxamido)-3-methoxypiperidin-1-yl)-4-(6-methoxypyridin-2-yl)thiazole-5-carboxylic acid]	105	
Cc1[nH]c(C(=O)N[C@@H]2CCN(c3nc(-c4nccn4C)c(C(=O)O)s3)C[C@@H]2F)c(Cl)c1Cl [Example 39, 2-((3S,4R)-4-{[(3,4-Dichloro-5-methyl-1H-pyrrol-2-yl)carbonyl]amino}-3-fluoropiperidin-1-yl)-4-(1-methyl-1H-imidazol-2-yl)-1,3-thiazole-5-carboxylic acid]	101	
CCOC(=O)c1sc(N2CC[C@@H](NC(=O)c3[nH]c(C)c(Cl)c3Cl)[C@@H](F)C2)nc1-c1ccncn1 [Example 46]	102	
Cc1[nH]c(C(=O)N[C@@H]2CCN(c3nc(-c4ccccn4)c(C(=O)O)s3)C[C@@H]2F)c(Cl)c1Cl [Example 8, 2-((3S,4R)-4-{[(3,4-Dichloro-5-methyl-1H-pyrrol-2-yl)carbonyl]amino}-3-fluoropiperidin-1-yl)-4-pyridin-2-yl-1,3-thiazole-5-carboxylic acid]	106	
CO[C@H]1CN(c2nc(-c3nccs3)c(C(=O)O)s2)CC[C@H]1NC(=O)c1[nH]c(C)c(Cl)c1Cl [Example 3, 2′-((3S,4R)-4-{[(3,4-Dichloro-5-methyl-1H-pyrrol-2-yl)carbonyl]amino}-3-methoxypiperidin-1-yl)-2,4′-bi-1,3-thiazole-5′-carboxylic acid]	98.6	
CCOC(=O)c1sc(N2CC[C@@H](NC(=O)c3[nH]c(C)c(Cl)c3Cl)[C@@H](OC)C2)nc1-c1cc(N(C)C)nc(N(C)C)n1 [Example 50]	97	
CCOC(=O)c1sc(N2CC[C@@H](NC(=O)c3[nH]c(C)c(Cl)c3Cl)[C@@H](F)C2)nc1-c1ncccc1F [Example 102, ethyl 2-((3S,4R)-4-(3,4-dichloro-5-methyl-1H-pyrrole-2-carboxamido)-3-fluoropiperidin-1-yl)-4-(3-fluoropyridin-2-yl)thiazole-5-carboxylate]	81.4	
CO[C@H]1CN(c2nc(-c3cn(C)nn3)c(C(=O)O)s2)CC[C@H]1NC(=O)c1[nH]c(C)c(Cl)c1Cl [Example 109, 2-((3S,4R)-4-(3,4-dichloro-5-methyl-1H-pyrrole-2-carboxamido)-3-methoxypiperidin-1-yl)-4-(1-methyl-1H-1,2,3-triazol-4-yl)thiazole-5-carboxylic acid]	101	
CNc1nc(-c2nc(N3CC[C@@H](NC(=O)c4[nH]c(C)c(Cl)c4Cl)[C@@H](OC)C3)sc2C(=O)O)cs1 [Example 34, 2-((3S,4R)-4-{[(3,4-Dichloro-5-methyl-1H-pyrrol-2-yl)carbonyl]amino}-3-methoxypiperidin-1-yl)-2′-(methylamino)-4,4′-bi-1,3-thiazole-5-carboxylic acid]	99.6	
COc1cc(OC)nc(-c2nc(N3CC[C@@H](NC(=O)c4[nH]c(C)c(Cl)c4Cl)[C@@H](OC)C3)sc2C(=O)O)n1 [Example 11, 2-((3S,4R)-4-{[(3,4-Dichloro-5-methyl-1H-pyrrol-2-yl)carbonyl]amino}-3-methoxypiperidin-1-yl)-4-(4,6-dimethoxypyrimidin-2-yl)-1,3-thiazole-5-carboxylic acid]	92	0.06 (≈ 0.105 µM)
COC(=O)c1sc(N2CC[C@@H](NC(=O)c3[nH]c(C)c(Cl)c3Cl)[C@@H](OC)C2)nc1-c1csc(N(C)C)n1 [Example 73]	99.9	
CCOC(=O)c1sc(N2CC[C@@H](NC(=O)c3[nH]c(C)c(Cl)c3Cl)[C@@H](F)C2)nc1-c1ncccn1 [Example 45]	100	
COCCn1ccnc1-c1nc(N2CC[C@@H](NC(=O)c3[nH]c(C)c(Cl)c3Cl)[C@@H](F)C2)sc1C(=O)O [Example 26, 2-((3S,4R)-4-{[(3,4-Dichloro-5-methyl-1H-pyrrol-2-yl)carbonyl]amino}-3-fluoropiperidin-1-yl)-4-[1-(2-methoxyethyl)-1H-imidazol-2-yl]-1,3-thiazole-5-carboxylic acid]	97.4	
